Experimental data taken from US20200369594A1, “COMPOUNDS COMPRISING SHORT-CHAIN FATTY ACID MOIETIES AND COMPOSITIONS AND METHODS THEREOF” (priority 2018, published 2020).
Where “and” joins values, the source holds several entries; their conditions need not be identical. Equal values may be shown once.

Columns and labels:
[1] = viscosity (flow property) and taste assessment; type: physicochemical
Method: Properties of provided compounds and compositions can be readily tested, including using a number of methods widely known and practiced in the art, in accordance with the present disclosure. For example, viscosity and/or taste of provided compounds can be readily tested. In some embodiments, viscosity was assessed by testing whether a provided compound could readily flow out of a vial or be swirled. In some embodiments, viscosity was assessed by testing whether a provided compound could be administered by direct drinking by a subject. In some embodiments, viscosity can be measured quantitatively or qualitatively by methods and instruments as known and practiced in the art. In some embodiments, taste was assessed by testing whether a provided compound could be administered by direct drinking by a subject.

[2] = tested on: dextran sulfate sodium (DSS)-induced colitis in mice; experiment: mouse dextran sulfate sodium (DSS) model of acute ulcerative colitis; type: in vivo, mice (Swiss Webster); conditions: for restoration of colon length (in words): DSS-induced colitis in mice, oral administration; on Colon Content Score (0-3): key: 0=normal, no blood observed; 1=semi-solid stool, may be slightly blood tinged; 2=semi-solid to fluid stool with definite evidence of blood; 3=bloody fluid or no content, (include animals with no observable distal content in this category)
[3] = CsA (75 mg/kg PO QD) vs. Compound I-1 (2 g/kg PO BID)
[4] = Naïve vs. Compound I-1 (2 g/kg PO BID)
[5] = Vehicle vs. Compound I-1 (2 g/kg PO BID)
[6] = individual animals, necropsy day 7, 3% DSS, Compound I-1 2 g/kg PO, BID (d0-6)

Structure (SMILES): CCCC(=O)OCC(COC(=O)CCC(=O)OCC(COC(=O)CCC)OC(=O)CCC)OC(=O)CCC (stereo not drawn) [Compound I-1]
- flow properties and taste for formulation [1]: surprisingly good flow properties and taste
- viscosity compared with glycerol [1]: lower viscosity than glycerol
- Mean Diff., Tukey's multiple comparisons test (colon length, FIG. 2) [2, 3]: 0.65
- Significant? Tukey's multiple comparisons test (colon length, FIG. 2) [2, 3]: No
- restoration of colon length (in words) [2]: significantly restore colon length
- restoration of colon length (in words) ([2]; listed as compound I-1): effectively restored colon length
- Mean Diff., Tukey's multiple comparisons test (colon length, FIG. 2) [2, 4]: 1.85
- Significant? Tukey's multiple comparisons test (colon length, FIG. 2) [2, 4]: Yes
- Mean Diff., Tukey's multiple comparisons test (colon length, FIG. 2) [2, 5]: −1.05
- Significant? Tukey's multiple comparisons test (colon length, FIG. 2) [2, 5]: Yes
- Colon Content Score (0-3) [2, 6]: 1 (8×) and 2 (2×)
- Colon Length [2, 6]: 8.00 cm (3×) and 8.25 cm and 6.25 cm (2×) and 8.50 cm and 7.00 cm (2×) and 6.75 cm
- Colon Weight:Length [2, 6]: 0.046 g/cm and 0.039 g/cm and 0.043 g/cm and 0.063 g/cm and 0.042 g/cm and 0.054 g/cm and 0.034 g/cm and 0.047 g/cm and 0.056 g/cm and 0.048 g/cm
- Colon Wet Wt [2, 6]: 0.369 g and 0.320 g and 0.343 g and 0.391 g and 0.332 g (2×) and 0.339 g and 0.291 g and 0.390 g and 0.324 g

Structure (SMILES): CCCC(=O)OCC(COC(=O)CCC)OC(=O)CCC(=O)OC(COC(=O)CCC)COC(=O)CCC [Compound I-2]
- flow properties and taste for formulation [1]: surprisingly good flow properties and taste
